{"source": "patent US7422862B2", "about": "“Methods for identifying modulators of apoptosis” (The Burnham Institute, priority 2001, dated 2008)", "assay_type_in_all_cases": "cell-based", "key": {"endogenous Humanin": {"tested_on": "endogenous Humanin", "experiment": "siRNA knock-down of endogenous Humanin in SF268 cells (immunoblotting)", "method": "(§1) (A-D) CMS14.1 neuronal cells were transfected with plasmids encoding Flag-HN peptide or Flag-control (27-amino-acid) peptide, together with GFP-encoding plasmid at 4:1 ratio. Cells were either cultured without further treatment (open bars) or subjected to various apoptotic stimuli for various times (dark bars), including (A) STS for 8 h (dark symbols=Flag-control; open symbols=Flag-HN), (B) Serum-deprivation for 72 h, (C) 10 joules/m2 Uvirradiation followed by 24 h culture, and (D) 50 ng/ml TNFa in […] for 24 h. Cells were then fixed and stained with DAPI to determine the percentage of apoptotic cells, evaluating=200 GFP-positive cells per sample (mean±SD; n=3). (inset) Lysates prepared from replicate cultures of transfected cells were normalized for total protein content and analyzed by immunoblotting using anti-Flag (top) and anti-tubulin (bottom) antibodies, confirming production of similar amounts of Flag-control and Flag-HN peptides. […] (Upper panel) After 72 hr, cell lysates were prepared and 100 ug was analyzed by immunoblotting using anti-HN and anti-tubulin (as a loading control) antibodies. (Lower panel) At 72 hr after siRNA transfection, SF268 cells were cultured with 0.1 μM STS for 8 hrs, then % apoptosis was determined (mean+std dev; n=3). […] Apoptosis (%) was measured 48 hrs later among GFP-positive cells. […]"}, "SF268 cells": {"tested_on": "SF268 cells", "experiment": "STS-induced apoptosis in siRNA-transfected SF268 cells", "settings": "0.1 μM STS 8 hrs", "method": "as §1"}, "endogenous Bax protein": {"tested_on": "endogenous Bax protein", "experiment": "Subcellular fractionation and immunoblot of endogenous Bax after STS", "settings": "SF268 cells, Humanin knocked-down by siRNA", "method": "(A-B) Humanin peptide prevents STS-induced Bax translocation in vivo. Cos-7 cells were first transfected with GFP-Bax plasmids. After 24 hrs, untagged wild-type or C8P mutant Humanin peptides were introduced into cells using ChariotTM reagent, and 2 h later cells were treated with 1 μM STS. After 4 h, the percentage of cells with translocated Bax was determined (mean±SD; n=3) by confocal microscopy (A) and representative photomicrographs (B). (C) Wild-type or C8P mutant Humanin peptides were introduced into Cos7 cells using ChariotTM reagent. Cytosolic (C) and mitochondria-containing (M) fractions were isolated by differential centrifugation 23 and analyzed by immunoblotting using anti-Bax (top), Hsp60 (middle) (mitochondrial marker), or Tubulin (bottom) (cytosol marker) antibodies. (D) HN or mutant control double-strand siRNAs were transfected into SF268 cells. After 48 h, cells were cultured without (Control) or with 0.1 uM STS. After 24 hr, cells were fractionated and analyzed by immunoblotting as above. […] After 3 h at 30° C., mitochondria were centrifuged and the resulting pellets (P) and supernatants (S) were analyzed by immunoblotting using anti-Cytochrome c (top), Hsp60 (middle), and Bax (bottom) antibodies. […]\nThese findings were also confirmed by subcellular fractionation, where cytosol and mitochondria-enriched heavy membrane preparations were prepared from Cos7 cells transduced with untagged Humanin or Humanin(C8P) peptides, and the relative amounts of endogenous Bax protein in these two fractions were measured by immunoblot analysis of samples normalized for cell-equivalents. […] Differences in the relative potency of Humanin at blocking Bax translocation as measured by microscopy (FIG. 7A) versus cell fractionation methods (FIG. 7C) can be explained by differences in the sensitivity of the assays, or could possibly indicate that even in cells where some Bax translocation has occurred, less of the total Bax protein associated with mitochondria. […]"}}, "note": "d = 2'-deoxy (DNA); r = 2'-OH (RNA)", "data": [{"substance": "Humanin siRNA: double-strand siRNA, sense r(CCAGUGAAAUUGACCUGCC)d(TT), SEQ ID NO:25/26 (sense CCAGUGAAAUUGACCUGCCNN; antisense GGCAGGUCAAUUUCACUGGNN; sugars from the 5' end r19 d2, backbone and the base at N not given here)", "values": [{"measurement": "endogenous levels of Humanin peptide", "setting": "endogenous Humanin", "value": "reduced"}, {"measurement": "sensitivity to STS-induced apoptosis", "setting": "SF268 cells", "value": "increased"}, {"measurement": "STS-induced translocation of Bax to membranes", "setting": "endogenous Bax protein", "value": "enhanced"}]}]}
